Data as given in ChEMBL document CHEMBL5042554, “Discovery of Pyridone-Substituted Triazolopyrimidine Dual A2A/A1 AR Antagonists for the Treatment of Ischemic Stroke” (ACS Med Chem Lett, 2022).

Key:
Adenosine receptor A1 [1] = target: T1, Adenosine receptor A1 (Homo sapiens, UniProt P30542); assay: Displacement of [3H] DPCPX from human recombinant A1 adenosine receptor expressed in CHO cells incubated for 60 mins by radioligand binding competition assay; assay type: cell-based
T1 sequence (P30542 whole entry): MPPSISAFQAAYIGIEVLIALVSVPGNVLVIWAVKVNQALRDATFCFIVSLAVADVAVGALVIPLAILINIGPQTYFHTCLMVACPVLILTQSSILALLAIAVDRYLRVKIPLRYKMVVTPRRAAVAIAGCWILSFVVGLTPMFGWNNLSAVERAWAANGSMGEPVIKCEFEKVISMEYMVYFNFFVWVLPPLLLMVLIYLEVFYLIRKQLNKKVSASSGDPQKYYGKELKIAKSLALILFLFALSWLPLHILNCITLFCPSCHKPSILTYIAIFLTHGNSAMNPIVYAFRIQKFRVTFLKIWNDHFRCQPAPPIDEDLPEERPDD

Adenosine receptor A2a [2] = target: T2, Adenosine receptor A2a (Homo sapiens, UniProt P29274); assay: Displacement of [3H] ZM241385 from human recombinant A2A adenosine receptor expressed in HeLa cells incubated for 30 mins by radioligand binding competition assay; assay type: cell-based
Adenosine receptor A2b = target: T3, Adenosine receptor A2b (Homo sapiens, UniProt P29275); assay: Displacement of [3H] DPCPX from human recombinant A2B adenosine receptor expressed in HEK293 cells incubated for 30 mins by radioligand binding competition assay; assay type: cell-based
T3 sequence (P29275 whole entry): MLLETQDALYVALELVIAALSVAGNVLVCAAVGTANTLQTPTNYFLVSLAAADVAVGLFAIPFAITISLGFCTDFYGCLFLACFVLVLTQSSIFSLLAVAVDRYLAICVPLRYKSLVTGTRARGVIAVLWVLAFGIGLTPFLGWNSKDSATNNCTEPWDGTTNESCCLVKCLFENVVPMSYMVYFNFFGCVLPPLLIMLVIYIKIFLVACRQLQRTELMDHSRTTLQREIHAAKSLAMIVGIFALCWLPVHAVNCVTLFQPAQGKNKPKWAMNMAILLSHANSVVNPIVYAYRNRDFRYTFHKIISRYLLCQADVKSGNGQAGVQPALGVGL

Adenosine receptor A3 = target: T4, Adenosine receptor A3 (Homo sapiens, UniProt P0DMS8); assay: Displacement of [3H] NECA from human recombinant A3 receptor expressed in HeLa cells incubated for 180 mins by radioligand binding competition assay; assay type: cell-based
T4 sequence (P0DMS8 whole entry): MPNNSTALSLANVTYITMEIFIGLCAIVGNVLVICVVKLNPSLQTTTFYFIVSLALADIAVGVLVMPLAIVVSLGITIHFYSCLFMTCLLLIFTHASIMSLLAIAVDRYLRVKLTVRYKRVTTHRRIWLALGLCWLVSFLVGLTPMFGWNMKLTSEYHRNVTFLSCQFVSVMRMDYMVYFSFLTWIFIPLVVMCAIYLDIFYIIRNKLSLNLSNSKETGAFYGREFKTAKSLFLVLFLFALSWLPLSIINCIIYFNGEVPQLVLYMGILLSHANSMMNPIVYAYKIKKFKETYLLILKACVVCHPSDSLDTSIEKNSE

Adenosine receptor A1 [3] = target: T1, Adenosine receptor A1; assay: Antagonist activity at human recombinant adenosine A1 receptor transfected in HEK293 cells co-transfected with Galpha15/16 assessed as intracellular calcium change incubated for 10 mins by microplate reader method; assay type: functional, cell-based
Adenosine receptor A2a [4] = target: T2, Adenosine receptor A2a; assay: Antagonist activity at human recombinant adenosine A2A receptor transfected in HEK293 cells co-transfected with Galpha15/16 assessed as intracellular calcium change incubated for 10 mins by microplate reader method; assay type: functional, cell-based

T2 sequence (P29274 whole entry): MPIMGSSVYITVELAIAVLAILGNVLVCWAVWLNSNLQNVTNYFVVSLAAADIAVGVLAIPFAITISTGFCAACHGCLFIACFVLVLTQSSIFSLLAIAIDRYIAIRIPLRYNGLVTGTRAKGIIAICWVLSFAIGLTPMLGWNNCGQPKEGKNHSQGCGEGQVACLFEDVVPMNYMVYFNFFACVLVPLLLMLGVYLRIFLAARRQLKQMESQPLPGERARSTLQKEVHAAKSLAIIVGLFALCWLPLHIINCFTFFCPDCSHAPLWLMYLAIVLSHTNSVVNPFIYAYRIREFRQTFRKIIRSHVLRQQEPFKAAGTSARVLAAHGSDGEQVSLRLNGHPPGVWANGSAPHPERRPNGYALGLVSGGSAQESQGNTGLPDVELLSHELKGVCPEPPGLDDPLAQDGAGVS

Row | SMILES | Ki (Adenosine receptor A1 [1]) | Ki (Adenosine receptor A2a [2]) | Ki (Adenosine receptor A2b) | Ki (Adenosine receptor A3) | IC50 (Adenosine receptor A1 [3]) | IC50 (Adenosine receptor A2a [4])
1 | Cc1ccc(-c2nc3c(-c4ccc(=O)n(C)c4)cnc(N)n3n2)o1 | 0.0884 µM | 0.448 µM | > 10 µM | 2.96 µM |  | 
2 | Cn1cc(-c2cnc(N)n3nc(-c4ccccn4)nc23)ccc1=O | 0.0376 µM | 0.0624 µM | > 10 µM | > 10 µM |  | 
3 | Cc1csc(-c2nc3c(-c4ccc(=O)n(C)c4)cnc(N)n3n2)n1 | 0.926 µM | 1.03 µM | > 10 µM | > 10 µM |  | 
4 | Cn1ccc(-c2nc3c(-c4ccc(=O)n(C)c4)cnc(N)n3n2)n1 | 0.722 µM | 3.43 µM | > 10 µM | > 10 µM |  | 
5 | Cn1nccc1-c1nc2c(-c3ccc(=O)n(C)c3)cnc(N)n2n1 | 2.97 µM | 0.797 µM | > 10 µM | > 10 µM |  | 
6 | Cc1cnc(-c2nc3c(-c4ccc(=O)n(C)c4)cnc(N)n3n2)s1 | 0.0219 µM | 0.0439 µM | 9.92 µM | 2.93 µM |  | 
7 | Cn1cc(-c2cnc(N)n3nc(-c4ccco4)nc23)ccc1=O | 0.0242 µM | 0.00558 µM | 0.491 µM |  | 0.0259 µM | 0.00572 µM
8 | Cn1cc(-c2cnc(N)nc2-c2ccco2)ccc1=O | 0.0886 µM | 0.0269 µM | 0.0589 µM | > 10 µM |  | 
9 | Cn1cc(-c2cnc(N)n3nc(-c4nccs4)nc23)ccc1=O | 0.078 µM | 0.0846 µM | 1.59 µM | > 10 µM |  | 
10 | Cc1cccc(-c2nc3c(-c4ccc(=O)n(C)c4)cnc(N)n3n2)n1 | 1.72 µM | 3.77 µM | > 10 µM | > 10 µM |  | 
